Experimental data as given in the NIST ThermoML archive (doi:10.1016/j.tca.2014.05.028).

Experiment: xn = mol fraction of the nth substance listed
Conditions: 101 kPa, Liquid; for viscosity: Falling or rolling sphere viscometry; for mass density: Vibrating tube method

CCCC[N+]1(C)CCCC1.[Br-] [1-butyl-1-methylpyrrolidinium bromide] + O
Conditions | mass density, 298.15 K [kg/m3] | mass density, 303.15 K [kg/m3] | mass density, 308.15 K [kg/m3] | mass density, 313.15 K [kg/m3] | mass density, 318.15 K [kg/m3] | viscosity, 298.15 K [mPa·s] | viscosity, 303.15 K [mPa·s] | viscosity, 308.15 K [mPa·s] | viscosity, 313.15 K [mPa·s] | viscosity, 318.15 K [mPa·s]
x1 = 0.0265 | 1049.2 | 1047.05 | 1044.76 | 1042.32 | 1039.75 | 1.64 | 1.444 | 1.24 | 1.099 | 0.987
x1 = 0.0561 | 1093.18 | 1090.36 | 1087.45 | 1084.45 | 1081.37 | 2.906 | 2.5 | 2.11 | 1.833 | 1.621
x1 = 0.0871 | 1125.96 | 1122.7 | 1119.39 | 1116.03 | 1112.61 | 4.9 | 4.146 | 3.445 | 2.945 | 2.579
x1 = 0.1283 | 1156.08 | 1152.59 | 1149.06 | 1145.49 | 1141.9 | 8.897 | 7.398 | 6.041 | 5.106 | 4.399
x1 = 0.1645 | 1174.63 | 1171.08 | 1167.5 | 1163.9 | 1160.28 | 13.84 | 11.27 | 9.049 | 7.53 | 6.4
x1 = 0.2074 | 1190.42 | 1186.89 | 1183.35 | 1179.78 | 1176.2 | 22.21 | 17.69 | 13.87 | 11.35 | 9.501
x1 = 0.2525 | 1202.66 | 1199.19 | 1195.71 | 1192.21 | 1188.7 | 36.28 | 27.6 | 21.22 | 17.02 | 14.03
x1 = 0.28 | 1208.32 | 1204.89 | 1201.45 | 1198 | 1194.53 | 44.98 | 34.67 | 26.45 | 20.97 | 17.12
x1 = 0.3012 | 1212.16 | 1208.76 | 1205.35 | 1201.93 | 1198.5 | 54.7 | 41.65 | 31.5 | 24.8 | 20.1
x1 = 0.3254 | 1215.99 | 1212.62 | 1209.25 | 1205.87 | 1202.48 | 67.64 | 51.14 | 38.4 | 30.02 | 24.1
x1 = 1 | 1221.19 | 1217.27 | 1213.38 | 1209.51 | 1205.66 | – | – | – | – | –
